In this assay the target is T1, human RXFP1 (Homo sapiens, UniProt Q9HBX9).
T1 construct: expressed in transfected cells
T1 sequence (Q9HBX9 1-757): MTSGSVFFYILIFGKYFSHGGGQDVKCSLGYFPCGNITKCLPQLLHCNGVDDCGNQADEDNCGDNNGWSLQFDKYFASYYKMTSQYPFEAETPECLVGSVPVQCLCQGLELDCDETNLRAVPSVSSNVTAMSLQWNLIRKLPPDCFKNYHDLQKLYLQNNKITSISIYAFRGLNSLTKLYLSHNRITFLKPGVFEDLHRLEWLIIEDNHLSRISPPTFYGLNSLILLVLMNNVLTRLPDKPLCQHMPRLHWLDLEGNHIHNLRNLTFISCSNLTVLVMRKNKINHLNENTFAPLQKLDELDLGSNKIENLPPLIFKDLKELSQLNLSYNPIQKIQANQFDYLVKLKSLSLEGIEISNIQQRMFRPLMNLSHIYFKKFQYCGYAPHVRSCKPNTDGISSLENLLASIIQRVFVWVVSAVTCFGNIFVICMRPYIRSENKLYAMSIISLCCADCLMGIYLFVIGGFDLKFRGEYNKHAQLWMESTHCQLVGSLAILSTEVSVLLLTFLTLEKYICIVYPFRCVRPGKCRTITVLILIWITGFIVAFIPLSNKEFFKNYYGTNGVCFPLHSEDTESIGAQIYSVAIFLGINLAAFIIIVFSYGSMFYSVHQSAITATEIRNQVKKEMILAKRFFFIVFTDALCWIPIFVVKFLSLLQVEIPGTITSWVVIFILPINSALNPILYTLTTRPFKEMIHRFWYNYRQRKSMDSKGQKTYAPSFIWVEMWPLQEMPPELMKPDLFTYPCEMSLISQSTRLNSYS
Briefly: RXFP1 cAMP assay (hRXFP1 HEK293 cAMP assay, HTRF). Format: cell-based. As to conditions: HEK293 cells stably expressing human RXFP1, 30 min at room temperature, read-out: cAMP hRXFP1 HEK293 Assay EC50. In outline:
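In a stable human RXFP1 HEK293 line, compounds acted for 30 min at RT in buffer with 0.5 mM IBMX. HTRF then quantified cellular cAMP.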

Broadly, the EC50 is the midpoint of the concentration-response curve. On to `COc1ccc(C2=NOC3COCC23)cc1C(=O)N[C@H]1[C@@H](C(=O)NCc2cccc(Cl)c2Cl)[C@H]2CC[C@@H]1/C2=C\C1CC1` (some centres unmarked) [compound 582], for which the EC50 is 74.9 nM.
For the molecule `COc1ccc(C2=NOC3COCC23)cc1C(=O)N[C@H]1[C@@H](C(=O)NCC2(c3ccccc3)CC2)[C@H]2CC[C@@H]1/C2=C\C1CC1` (some centres unmarked) [compound 572], the EC50 is 66.4 nM.
As for `COc1ccc(-c2cc(C(O)C(F)(F)F)ccc2F)cc1C(=O)N[C@@H]1C2CCC(/C2=C/C2CC2)[C@@H]1C(=O)Nc1ccc(F)c(C(F)(F)F)c1` (some centres unmarked) [Example 245], the EC50 came out at 3 nM.
On to `COc1ccc(C2=NOC3COCC23)cc1C(=O)N[C@@H]1C2CCC(/C2=C/C2CC2)[C@@H]1C(=O)Nc1ccc(F)c(C(F)(F)F)c1` (some centres unmarked) [compound 418], for which the EC50 came out at 170 nM.
Take `COc1ccc(C2=NOC3COCC23)cc1C(=O)N[C@H]1[C@@H](C(=O)NC2CCC(C(F)(F)F)C2)[C@H]2CC[C@@H]1/C2=C\C1CC1` (single isomer, unassigned) [Example 629]: the EC50 was 180 nM.
Consider `COc1ccc(-c2cc(C(OC(=O)NC(C)(C)C)C(=O)O)ccc2F)cc1C(=O)N[C@H]1[C@@H](C(=O)Nc2ccc(F)c(C(F)(F)F)c2)[C@H]2CC[C@@H]1/C2=C\CCC(F)(F)F` (some centres unmarked) [compound 934], for which the EC50 worked out at 1.4 nM.
With `COc1ccc(C2CCCN2)cc1C(=O)N[C@@H]1C2CCC(C2=CC2CC2)[C@@H]1C(=O)Nc1ccc(F)c(C(F)(F)F)c1` (some centres unmarked) [compound 703], the half-maximal effective concentration (EC50) stood at 1190 nM.
On to `COc1ccc(-c2cc(OC(F)(F)F)ccc2F)cc1C(=O)N[C@@H]1C2CCC(/C2=C/C2CC2)[C@@H]1C(=O)Nc1ccc(F)c(C(F)(F)F)c1` (some centres unmarked) [compound 285], for which the EC50 was 7 nM.
With `COc1ccc(-c2cc(C(O)C(=O)O)ccc2F)cc1C(=O)NC1C2CCC(/C2=C/C2CC(F)(F)C2)C1C(=O)Nc1ccc(F)c(C(F)(F)F)c1` (centres unmarked) [compound 353], the half-maximal effective concentration (EC50) is 11 nM.
As for `COCC1(NC(=O)[C@@H]2[C@H](NC(=O)c3cc(C4=NOC5COCC45)ccc3OC)[C@@H]3CC[C@H]2/C3=C/C2CC2)CCCC1` (some centres unmarked) [compound 632], the figure is 190 nM.
On to `COc1ccc(C2=NO[C@H]3C[C@H](CO)CN23)cc1C(=O)N[C@H]1[C@@H](C(=O)Nc2ccc(F)c(C(F)(F)F)c2)[C@H]2CC[C@@H]1/C2=C\CC(C)C` [compound 838], for which the concentration giving a half-maximal response (EC50) amounted to 4.4 nM.
Next, `COc1ccc(C2=NOC(CO)C2CO)cc1C(=O)N[C@H]1[C@@H](C(=O)Nc2ccc(F)c(C(F)(F)F)c2)[C@H]2CC[C@@H]1/C2=C\C1CC1` (single isomer, unassigned) [compound 657]: 312 nM; `COc1ccc(C2=NOC3CC(CO)CC23)cc1C(=O)N[C@H]1[C@@H](C(=O)Nc2ccc(F)c(C(F)(F)F)c2)[C@H]2CC[C@@H]1/C2=C\C1CCCC1` (some centres unmarked) [compound 457]: 2.1 nM; `CCCCNC(=O)[C@@H]1[C@H](NC(=O)c2cc(C3=NOC4COCC34)ccc2OC)[C@@H]2CC[C@H]1/C2=C/C1CC1` (some centres unmarked) [compound 614]: 138 nM.
Turning to `CCC(CC)CNC(=O)[C@@H]1[C@H](NC(=O)c2cc(C3=NOC4COCC34)ccc2OC)[C@@H]2CC[C@H]1/C2=C/C1CC1` (some centres unmarked) [compound 553], the half-maximal effective concentration (EC50) worked out at 37.4 nM.
Next, `COC(=O)c1c[nH]c2cc(-c3ccc(OC)c(C(=O)N[C@@H]4C5CCC(/C5=C/C(F)(F)F)[C@@H]4C(=O)Nc4ccc(F)c(C(F)(F)F)c4)c3)ccc12` (some centres unmarked) [compound 296]: 205 nM; `COc1ccc(-c2cc(C(NC(=O)Cc3ccccc3)C(=O)O)ccc2F)cc1C(=O)N[C@@H]1C2CCC(/C2=C/C(F)(F)F)[C@@H]1C(=O)Nc1ccc(F)c(C(F)(F)F)c1` (some centres unmarked) [compound 240]: 1 nM; `COc1ccc(C2=NOC(C(C)O)C2)cc1C(=O)N[C@H]1[C@@H](C(=O)Nc2ccc(F)c(C(F)(F)F)c2)[C@H]2CC[C@@H]1/C2=C\C1CC1` (single isomer, unassigned) [compound 554]: 37.6 nM.
For the molecule `COc1ccc(C2=NO[C@H]3COC[C@@H]23)cc1C(=O)N[C@H]1[C@@H](C(=O)Nc2ccc(F)c(C(F)(F)F)c2)[C@H]2CC[C@@H]1/C2=C\CC1CCC1` [compound 829], the EC50 turned out to be 3.4 nM.
For `COc1ccc(C2=NO[C@H]3COC[C@@H]23)cc1C(=O)N[C@H]1[C@@H](C(=O)Nc2ccc(F)c(C(F)(F)F)c2)[C@H]2CC[C@@H]1/C2=C\CCC(F)(F)F` [compound 830], the EC50 was determined as 3.4 nM.
For `COc1ccc(C2=NOC3COCC23)c(F)c1C(=O)N[C@H]1[C@@H](C(=O)Nc2ccc(F)c(C(F)(F)F)c2)[C@H]2CC[C@@H]1/C2=C\C1CC1` (single isomer, unassigned) [compound 513], the concentration giving a half-maximal response (EC50) came out at 16.5 nM.
As for `COc1ccc(-c2cc(C(=O)O)ccc2F)cc1C(=O)N[C@@H]1C2CCC(/C2=C/C2CC2)[C@@H]1C(=O)NCc1cccc(C(F)(F)F)c1` (some centres unmarked) [compound 264], the figure is 3180 nM; as for `COc1ccc(-c2cc(C(=O)O)ccc2F)cc1C(=O)N[C@H]1[C@@H](CNc2ccc(F)c(C(F)(F)F)c2)[C@H]2CC[C@@H]1/C2=C\C1CC1` [Example 258, 3′-(((1R,2R,3R,4R,Z)-7-(cyclopropylmethylene)-3-(((4-fluoro-3-(trifluoromethyl)phenyl)amino)methyl)bicyclo[2.2.1]heptan-2-yl)carbamoyl)-6-fluoro-4′-methoxy-[1,1′-biphenyl]-3-carboxylic acid], 283 nM; as for `COc1ccc(C2=NOC(C3(O)CCCCC3)C2)cc1C(=O)N[C@H]1[C@@H](C(=O)Nc2ccc(F)c(C(F)(F)F)c2)[C@H]2CC[C@@H]1/C2=C\C1CC1` (single isomer, unassigned) [compound 549], 33 nM.
`COc1ccc(C2=NO[C@H]3C[C@H](CO)C[C@@H]23)cc1C(=O)N[C@H]1[C@@H](C(=O)Nc2ccc(F)c(C(F)(F)F)c2)[C@H]2CC[C@@H]1/C2=C\CC(O)C(F)(F)F` (some centres unmarked) [compound 820]: the concentration giving a half-maximal response (EC50) was 2.4 nM.
Turning to `COc1ccc(C2=NOC(C3(O)CCC3)C2)cc1C(=O)N[C@H]1[C@@H](C(=O)Nc2ccc(F)c(C(F)(F)F)c2)[C@H]2CC[C@@H]1/C2=C\C1CC1` (single isomer, unassigned) [compound 515], the EC50 was found to be 17.2 nM.
Next, `COc1ccc(C2=NOC3COCC23)cc1C(=O)N[C@H]1[C@@H](C(=O)NC2CC=CC2)[C@H]2CC[C@@H]1/C2=C\C1CC1` (some centres unmarked) [compound 559]: 44.9 nM; `O=C(N[C@H]1[C@@H](C(=O)Nc2ccc(F)c(C(F)(F)F)c2)[C@H]2CC[C@@H]1/C2=C\C1CC1)c1cc(C2=NOC3COCC23)cc(F)c1OCC1CC1` (some centres unmarked) [compound 799]: 4.7 nM; `COc1ccc(-c2cc(C(OC(=O)Nc3ccccc3)C(=O)O)ccc2F)cc1C(=O)N[C@@H]1C2CCC(/C2=C/C(F)(F)F)[C@@H]1C(=O)Nc1ccc(F)c(C(F)(F)F)c1` (some centres unmarked) [compound 205]: 1 nM.
`COc1ccc(C2=NOC3COCC23)cc1C(=O)N[C@H]1[C@@H](C(=O)NC(C)(C)C(C)(C)C)[C@H]2CC[C@@H]1/C2=C\C1CC1` (some centres unmarked) [compound 508]: the EC50 amounted to 13 nM.
Next, `O=C(N[C@H]1C(C(=O)Nc2ccc(F)c(C(F)(F)F)c2)[C@H]2CC[C@@H]1/C2=C\C1CC1)c1cc(C2=NOC3COCC23)ccc1OCC(F)F` (some centres unmarked) [compound 785]: 4 nM; `COc1ccc(-c2cc(C(=O)O)ccc2F)cc1C(=O)N[C@@H]1C2CCC(/C2=C/C2CC2)[C@@H]1C(=O)NC(C)c1cc(F)ccc1F` (some centres unmarked) [compound 307]: 958 nM; `COc1ccc(C2CCN(C(=O)C(C)(C)O)C2)cc1C(=O)N[C@H]1[C@@H](C(=O)Nc2ccc(F)c(C(F)(F)F)c2)[C@H]2CC[C@@H]1/C2=C\C1CC1` (single isomer, unassigned) [Example 449]: 1.6 nM.
As to `COc1ccc(C2=NO[C@@H]3C[C@H](CO)CN23)cc1C(=O)N[C@H]1[C@@H](C(=O)N[C@H](C)C2(C)CC2)[C@H]2CC[C@@H]1/C2=C\C1CC1` [compound 768], the 50% effective concentration (EC50) came to 3 nM.
Consider `COc1ccc(C2=NOC3CC(CO)CC23)cc1C(=O)N[C@@H]1C2CCC(/C2=C/C2CC2)[C@@H]1C(=O)Nc1ccc(F)c(C(F)(F)F)c1` (single isomer, unassigned) [compound 431], for which the half-maximal effective concentration (EC50) was determined as 250 nM.
`COc1ccc(C2=NOC3COCC23)cc1C(=O)N[C@H]1[C@@H](C(=O)NC(C2CC2)C2CC2)[C@H]2CC[C@@H]1/C2=C\C1CC1` (some centres unmarked) [compound 521]: the concentration giving a half-maximal response (EC50) came to 19.5 nM.
As for `COc1ccc(-c2cc([C@H](O)C(F)(F)F)ccc2F)cc1C(=O)N[C@H]1[C@@H](C(=O)Nc2ccc(F)c(C(F)(F)F)c2)[C@H]2CC[C@@H]1/C2=C\C1CCCC1` [compound 920], the EC50 was determined as 2.4 nM.
Turning to `COc1ccc(C2CCCN2C(=O)OC(C)(C)C)cc1C(=O)N[C@@H]1C2CCC(/C2=C/C2CC2)[C@@H]1C(=O)Nc1ccc(F)c(C(F)(F)F)c1` (single isomer, unassigned) [compound 715], the EC50 stood at 1960 nM.

These data come from patent US20250221966A1, “RXFP1 AGONISTS” (BRISTOL-MYERS SQUIBB COMPANY, priority 2021, published 2025).
